Patent US8435980B2 (AbbVie Inc., priority 2009, dated 2013)

Target: T1, Cdc7 (BEV coexpressed huCDC7/DBF4) (Homo sapiens, UniProt O00311)
T1 construct: made in house; host or cells: BEV (baculovirus expression vector) co-expression; insect cells are implied but no cell line is named
Test: Cdc7 enzyme inhibition assay ([33P]ATP, biotinylated peptide substrate, FlashPlate)
Assay type: biochemical
Details: for Ki: Table 3, enzyme inhibition data (Ki); for Ki ratio comparisons (Ki Comparative Example/Ki Example): Table 2, Comparative Example lacking the chloro substituent versus the chloro Example
Description: Cdc7 (BEV coexpressed huCDC7/DBF4) is prepared internally. Cdc7 assays are conducted as follows with final concentrations as listed. […] Reactions are quenched after 1 hr by the addition of 90 μL stop buffer (50 mM EDTA, 2M NaCl). […] (Ki) for exemplary compounds.

T1 sequence (O00311 whole entry): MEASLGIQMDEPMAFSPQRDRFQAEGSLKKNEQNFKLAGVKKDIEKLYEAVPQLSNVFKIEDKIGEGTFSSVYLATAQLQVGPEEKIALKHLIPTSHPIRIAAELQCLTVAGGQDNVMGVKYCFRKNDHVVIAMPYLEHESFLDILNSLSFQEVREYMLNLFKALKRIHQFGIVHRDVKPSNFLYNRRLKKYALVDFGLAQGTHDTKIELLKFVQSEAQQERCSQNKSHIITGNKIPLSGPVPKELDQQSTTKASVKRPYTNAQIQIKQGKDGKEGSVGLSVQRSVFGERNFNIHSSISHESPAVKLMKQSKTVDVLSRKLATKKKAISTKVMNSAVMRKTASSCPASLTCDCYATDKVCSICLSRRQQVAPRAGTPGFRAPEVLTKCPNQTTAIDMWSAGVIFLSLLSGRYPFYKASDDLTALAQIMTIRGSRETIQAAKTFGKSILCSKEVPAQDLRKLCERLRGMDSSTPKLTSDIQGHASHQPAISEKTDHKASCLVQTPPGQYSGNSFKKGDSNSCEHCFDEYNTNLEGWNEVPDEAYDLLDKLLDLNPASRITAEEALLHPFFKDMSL
T1 sequence (Q9UBU7 whole entry partner): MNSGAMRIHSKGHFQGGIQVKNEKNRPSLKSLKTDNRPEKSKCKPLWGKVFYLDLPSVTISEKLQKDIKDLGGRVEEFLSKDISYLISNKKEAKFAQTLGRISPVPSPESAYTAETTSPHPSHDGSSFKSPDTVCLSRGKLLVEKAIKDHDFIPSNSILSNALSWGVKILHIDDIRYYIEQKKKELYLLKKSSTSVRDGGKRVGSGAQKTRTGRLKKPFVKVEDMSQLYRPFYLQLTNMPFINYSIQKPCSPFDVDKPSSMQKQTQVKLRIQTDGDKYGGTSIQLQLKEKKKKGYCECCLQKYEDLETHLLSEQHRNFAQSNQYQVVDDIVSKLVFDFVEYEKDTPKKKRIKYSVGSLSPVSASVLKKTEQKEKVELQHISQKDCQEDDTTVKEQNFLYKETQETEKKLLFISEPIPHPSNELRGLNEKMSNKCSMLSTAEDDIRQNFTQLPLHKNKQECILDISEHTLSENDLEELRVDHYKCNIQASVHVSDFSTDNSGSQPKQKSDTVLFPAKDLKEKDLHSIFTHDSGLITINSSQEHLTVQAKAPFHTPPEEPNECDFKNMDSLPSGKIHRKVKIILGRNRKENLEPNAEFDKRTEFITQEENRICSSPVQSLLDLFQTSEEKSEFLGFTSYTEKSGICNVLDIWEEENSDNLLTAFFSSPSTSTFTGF

| Compound | Ki | Ki ratio comparisons (Ki Comparative Example/Ki Example) |
| --- | --- | --- |
| CS(=O)(=O)N[C@@H]1CCCC[C@H]1Nc1cc(-c2c[nH]c3ncccc23)cc(Cl)n1 (relative stereo) [Example 110, N-[(trans)-2-{[6-chloro-4-(1H-pyrrolo[2,3-b]pyridin-3-yl)pyridin-2-yl]amino}cyclohexyl]methanesulfonamide] | < 0.01 µM |  |
| O=C(N[C@@H]1CCCC[C@H]1Nc1cc(-c2c[nH]c3ncccc23)cc(Cl)n1)C1CCN1 (relative stereo) [Example 120, N-[(trans)-2-{[6-chloro-4-(1H-pyrrolo[2,3-b]pyridin-3-yl)pyridin-2-yl]amino}cyclohexyl]azetidine-2-carboxamide] | < 0.01 µM |  |
| CN1CCC(C(=O)N[C@H]2CC[C@H](Nc3cc(-c4c[nH]c5ncccc45)cc(Cl)n3)CC2)C1 (relative stereo) [Example 125, N-(trans-4-{[6-chloro-4-(1H-pyrrolo[2,3-b]pyridin-3-yl)pyridin-2-yl]amino}cyclohexyl)-1-methylpyrrolidine-3-carboxamide] | < 0.01 µM |  |
| N[C@H]1CCCC[C@H]1Nc1cc(-c2c[nH]c3ncccc23)cc(Cl)n1 (relative stereo) [Example 131, (cis)-N-[6-chloro-4-(1H-pyrrolo[2,3-b]pyridin-3-yl)pyridin-2-yl]cyclohexane-1,2-diamine] | < 0.01 µM |  |
| CS(=O)(=O)N[C@@H]1CCCC[C@@H]1Nc1cc(-c2c[nH]c3ncccc23)cc(Cl)n1 (relative stereo) [Example 132, N-[(cis)-2-{[6-chloro-4-(1H-pyrrolo[2,3-b]pyridin-3-yl)pyridin-2-yl]amino}cyclohexyl]methanesulfonamide] | < 0.01 µM |  |
| CCN1CCC1C(=O)N[C@H]1CC[C@H](Nc2cc(-c3c[nH]c4ncccc34)cc(Cl)n2)CC1 (relative stereo) [Example 134, N-(trans-4-{[6-chloro-4-(1H-pyrrolo[2,3-b]pyridin-3-yl)pyridin-2-yl]amino}cyclohexyl)-1-ethylazetidine-2-carboxamide] | < 0.01 µM |  |
| O=C(N[C@H]1CC[C@H](Nc2cc(-c3c[nH]c4ncccc34)cc(Cl)n2)CC1)C1CCN1C1CCCC1 (relative stereo) [Example 136, N-(trans-4-{[6-chloro-4-(1H-pyrrolo[2,3-b]pyridin-3-yl)pyridin-2-yl]amino}cyclohexyl)-1-cyclopentylazetidine-2-carboxamide] | < 0.01 µM |  |
| CN(C)[C@@H]1CCCC[C@@H]1Nc1cc(-c2c[nH]c3ncccc23)cc(Cl)n1 (relative stereo) [Example 140, (cis)-N′-[6-chloro-4-(1H-pyrrolo[2,3-b]pyridin-3-yl)pyridin-2-yl]-N,N-dimethylcyclohexane-1,2-diamine] | < 0.01 µM |  |
| O=S(=O)(N[C@H]1CC[C@H](Nc2cc(-c3c[nH]c4ncccc34)cc(Cl)n2)CC1)C1CCNC1 (relative stereo) [Example 151, N-(trans-4-{[6-chloro-4-(1H-pyrrolo[2,3-b]pyridin-3-yl)pyridin-2-yl]amino}cyclohexyl)pyrrolidine-3-sulfonamide] | < 0.01 µM |  |
| NC1CCC(N[C@H]2CC[C@H](Nc3cc(-c4c[nH]c5ncccc45)cc(Cl)n3)CC2)CC1 (relative stereo) [Example 158, trans-N-(4-aminocyclohexyl)-N′-[6-chloro-4-(1H-pyrrolo[2,3-b]pyridin-3-yl)pyridin-2-yl]cyclohexane-1,4-diamine] | < 0.01 µM |  |
| CCN1CCC(C(=O)N[C@H]2CC[C@H](Nc3cc(-c4c[nH]c5ncc(OC)cc45)cc(Cl)n3)CC2)C1 (relative stereo) [Example 219, N-(trans-4-{[6-chloro-4-(5-methoxy-1H-pyrrolo[2,3-b]pyridin-3-yl)pyridin-2-yl]amino}cyclohexyl)-1-ethylpyrrolidine-3-carboxamide] | < 0.01 µM |  |
| CCN1CCC(C(=O)N[C@H]2CC[C@H](Nc3cc(-c4c[nH]c5ncccc45)cc(Cl)n3)CC2)C1 (relative stereo) [Example 326, N-(trans-4-{[6-chloro-4-(1H-pyrrolo[2,3-b]pyridin-3-yl)pyridin-2-yl]amino}cyclohexyl)-1-ethylpyrrolidine-3-carboxamide] | < 0.01 µM |  |
| CN1CCC[C@H]1C(=O)N[C@H]1CC[C@H](Nc2cc(-c3c[nH]c4ncccc34)cc(Cl)n2)CC1 (relative stereo) [Example 336, N-(trans-4-{[6-chloro-4-(1H-pyrrolo[2,3-b]pyridin-3-yl)pyridin-2-yl]amino}cyclohexyl)-1-methylprolinamide] | < 0.01 µM |  |
| CN1CCCCC1C(=O)N[C@H]1CC[C@H](Nc2cc(-c3c[nH]c4ncccc34)cc(Cl)n2)CC1 (relative stereo) [Example 337, N-(trans-4-{[6-chloro-4-(1H-pyrrolo[2,3-b]pyridin-3-yl)pyridin-2-yl]amino}cyclohexyl)-1-methylpiperidine-2-carboxamide] | < 0.01 µM |  |
| CN1C(=O)CC[C@H]1C(=O)N[C@H]1CC[C@H](Nc2cc(-c3c[nH]c4ncccc34)cc(Cl)n2)CC1 (relative stereo) [Example 342, N-(trans-4-{[6-chloro-4-(1H-pyrrolo[2,3-b]pyridin-3-yl)pyridin-2-yl]amino}cyclohexyl)-1-methyl-5-oxoprolinamide] | < 0.01 µM |  |
| O=C(CNC1CN2CCC1CC2)N[C@H]1CC[C@H](Nc2cc(-c3c[nH]c4ncccc34)cc(Cl)n2)CC1 (relative stereo) [Example 351, N~2~-1-azabicyclo[2.2.2]oct-3-yl-N-(trans-4-{[6-chloro-4-(1H-pyrrolo[2,3-b]pyridin-3-yl)pyridin-2-yl]amino}cyclohexyl)glycinamide] | < 0.01 µM |  |
| CC1CCC(NCC(=O)N[C@H]2CC[C@H](Nc3cc(-c4c[nH]c5ncccc45)cc(Cl)n3)CC2)CC1 (relative stereo) [Example 354, N-(trans-4-{[6-chloro-4-(1H-pyrrolo[2,3-b]pyridin-3-yl)pyridin-2-yl]amino}cyclohexyl)-N~2~-(4-methylcyclohexyl)glycinamide] | < 0.01 µM |  |
| O=C(NC1CCC(N[C@H]2CC[C@H](Nc3cc(-c4c[nH]c5ncccc45)cc(Cl)n3)CC2)CC1)OCc1ccccc1 (relative stereo) [Example 363, benzyl {4-[(trans-4-{[6-chloro-4-(1H-pyrrolo[2,3-b]pyridin-3-yl)pyridin-2-yl]amino}cyclohexyl)amino]cyclohexyl}carbamate] | < 0.01 µM |  |
| CC(=O)NC1CCC(N(C(C)=O)[C@H]2CC[C@H](Nc3cc(-c4c[nH]c5ncccc45)cc(Cl)n3)CC2)CC1 (relative stereo) [Example 365, N-[4-(acetylamino)cyclohexyl]-N-(trans-4-{[6-chloro-4-(1H-pyrrolo[2,3-b]pyridin-3-yl)pyridin-2-yl]amino}cyclohexyl)acetamide] | < 0.01 µM |  |
| CC(c1ccccc1)N1CC(C(=O)N[C@H]2CC[C@H](Nc3cc(-c4c[nH]c5ncccc45)cc(Cl)n3)CC2)C1 (relative stereo) [Example 396, N-(trans-4-{[6-chloro-4-(1H-pyrrolo[2,3-b]pyridin-3-yl)pyridin-2-yl]amino}cyclohexyl)-1-(1-phenylethyl)azetidine-3-carboxamide] | < 0.01 µM |  |
| CCN1CCC(C(=O)N[C@H]2CC[C@H](Nc3nc(Cl)cc(-c4c[nH]c5ncccc45)n3)CC2)C1 (relative stereo) [Example 462, N-(trans-4-{[4-chloro-6-(1H-pyrrolo[2,3-b]pyridin-3-yl)pyrimidin-2-yl]amino}cyclohexyl)-1-ethylpyrrolidine-3-carboxamide] | < 0.01 µM |  |
| c1cnc2[nH]cc(-c3ccnc(NC4CCCCC4)c3)c2c1 [Comparative Example 1, N-cyclohexyl-4-(1H-pyrrolo[2,3-b]pyridin-3-yl)pyridin-2-amine, reference compound] |  | 10 |
| Cc1cc(-c2c[nH]c3ncccc23)cc(NC2CCCCC2)n1 [Comparative Example 2, N-cyclohexyl-6-methyl-4-(1H-pyrrolo[2,3-b]pyridin-3-yl)pyridin-2-amine, reference compound] |  | 14 |
| Cc1cc(-c2c[nH]c3ncccc23)cc(NCc2ccccc2)n1 [Comparative Example 3, N-benzyl-6-methyl-4-(1H-pyrrolo[2,3-b]pyridin-3-yl)pyridin-2-amine, reference compound] |  | 75 |
| Cc1cc(-c2c[nH]c3ncccc23)cc(N[C@H]2CC[C@H](O)CC2)n1 [Comparative Example 4, Trans-4-{[6-methyl-4-(1H-pyrrolo[2,3-b]pyridin-3-yl)pyridin-2-yl]amino}cyclohexanol, reference compound] |  | 54 |
| N#Cc1cc(-c2c[nH]c3ncccc23)cc(NC2CCCCC2)n1 [Comparative Example 5, 6-(cyclohexylamino)-4-(1H-pyrrolo[2,3-b]pyridin-3-yl)pyridine-2-carbonitrile, reference compound] |  | 9 |
| N#Cc1cc(-c2c[nH]c3ncccc23)cc(NCc2ccccc2)n1 [Comparative Example 6, 6-(benzylamino)-4-(1H-pyrrolo[2,3-b]pyridin-3-yl)pyridine-2-carbonitrile, reference compound] |  | 5 |
| NC(=O)c1cc(-c2c[nH]c3ncccc23)cc(NCc2ccccc2)n1 [Comparative Example 7, 6-(benzylamino)-4-(1H-pyrrolo[2,3-b]pyridin-3-yl)pyridine-2-carboxamide, reference compound] |  | 45 |
| N#Cc1cc(-c2c[nH]c3ncccc23)cc(N2CCCCC2)n1 [Comparative Example 8, 6-piperidin-1-yl-4-(1H-pyrrolo[2,3-b]pyridin-3-yl)pyridine-2-carbonitrile, reference compound] |  | 2 |
| NC(=O)c1cc(-c2c[nH]c3ncccc23)cc(N2CCCCC2)n1 [Comparative Example 9, 6-piperidin-1-yl-4-(1H-pyrrolo[2,3-b]pyridin-3-yl)pyridine-2-carboxamide, reference compound] |  | 84 |
